Data taken from patent US10111822B2, “External dermal composition for anti-ageing and method for producing the same” (Hayashibara Co., Ltd., priority 2012, dated 2018).

Experiments:
[1] = tested on: occludin; assay: TJ-related protein occludin in NHEK cells (Western); assay type: cell-based, human; conditions: 1 mM, 3 days, CaCl2 positive control = 100%, no addition 63%
Protocol: (§1) The following experiment was conducted to examine the effect of ascorbic acid 2-glucoside on the production of TJ-related proteins that constitute cell-cell adhesion structures by focusing on occludin and ZO-1 that are focused on as TJ-related proteins known to exist in a granular layer of epidermis: As a model for typical normal human epidermal cells, NHEK cells were suspended in EpiLife medium (pH 7.4); inoculated to 12-well microplates at a cell density of 1×10^5 cells/well; cultured overnight under the conditions of 37° C. and 5% v/v CO2; and further cultured for three days under the conditions of 37° C. and 5% v/v CO2 after adding either CaCl2 as a positive control to each well to give a final concentration of 0.5 mM, or “AA2G”, a product name of a particulate composition containing anhydrous crystalline ascorbic acid 2-glucoside, commercialized by Hayashibara Co., Ltd., Okayama, Japan, to give a final concentration of 0.5 or 1 mM. […] A sample of 20 μg protein for each lane per each cell extract in respective wells was applied to sodium dodecyl sulfate polyacrylamide gel electrophoresis (SDS-PAGE) with 10% w/v SDS containing DTT, followed by assaying the concentration of occludin or ZO-1 in each cell extract with “Luminate Western HRP Substrates”, a product name of a premixed, ready-to-use chemiluminescent detection reagent using an internal standard “α-Tubulin”, commercialized by Merck KGaA, Darmstadt, Germany, wherein there were used “F-11”, a product name of an anti-occludin mouse monoclonal antibody, commercialized by Santa Cruz Biotechnology, Inc., Texas, USA, or “ZO1-1A12”, a product name of a ZO-1 mouse monoclonal antibody, commercialized by Invitrogen Corporation, Calif., USA, was used as a first antibody; and “PO447”, a product name of a horseradish peroxidase (HRPO) labeled anti-mouse IgG, commercialized by DAKO Japan Inc., Tokyo, Japan, or “PO448”, a product name of an HRPO-labeled anti-rabbit IgG, commercialized by DAKO Japan Inc., Tokyo, Japan, as a secondary antibody. […]

[2] = tested on: cornified envelope (CE); assay: Production of cornified envelope (CE) in NHEK cells; assay type: cell-based, human; conditions: 1 mM, 5 days, control 0.63 ± 0.07
Protocol: The following experiment was conducted to examine the effect of ascorbic acid 2-glucoside on the production of CE in a keratinous layer. As a model for typical normal human epidermal cells, normal human epidermal keratinocytes from neonatal foreskin, commercialized by Kurabo Industries Ltd., Osaka, Japan, and abbreviated as “NHEK cells”, hereinafter, were suspended in EpiLife medium (pH 7.4), commercialized by Invitrogen Corporation, Calif., USA, and called “EpiLife medium”, hereinafter, inoculated to 12-well microplates at a cell density of 1×10^5 cells/well, and cultured under the conditions of 37° C. and 5% v/v CO2 overnight. Thereafter, “AA2G”, a product name of a particulate composition containing anhydrous crystalline ascorbic acid 2-glucoside, commercialized by Hayashibara Co., Ltd., Okayama, Japan, was added to each well to give a final concentration of 0.5 or 1 mM, or, as a positive control, CaCl2 was added to each well to give a final concentration of 1 mM; and the cells in each well were cultured at 37° C. for five days while replacing the medium in each well with a fresh preparation of EpiLife medium having the above-identified concentration of ascorbic acid 2-glucoside or CaCl2. Assay for intracellular CE content was carried out in accordance with Tatsuya Hasegawa et al., “Lipids”, Vol. 46, pp. 529 to 535, 2011. After completion of the culture, the culture supernatant in each well was immediately removed, followed by detaching and extracting the cells adhered to the wall of each well by means of pipetting with phosphate buffered saline (PBS, pH 7.4) containing 2% w/v sodium dodecyl sulfate (SDS), and collecting insoluble fractions by centrifugation at 15,000 rpm for 10 min. […] The measured values were regarded as CE production levels. […]

[3] = tested on: ZO-1; assay: TJ-related protein ZO-1 in NHEK cells (Western); assay type: cell-based, human; conditions: 1 mM, 3 days, CaCl2 positive control = 100%, no addition 38%
Protocol: as §1

[4] = tested on: NHEK cells; assay: Cytotoxicity in NHEK cell culture; assay type: cell-based, human; conditions: EpiLife medium, 24 h
[5] = tested on: glutathione; assay: Production level of glutathione in A431 cells; assay type: cell-based, human; conditions: 0.1 mM, 24 h, control = 100%
Protocol: To Dulbecco's MEM medium, containing 10% v/v calf fetal serum and an antibiotic (abbreviated as “D-MEM”, hereinafter), were added ascorbic acid 2-glucoside, a reagent grade specimen commercialized by Hayashibara Co., Ltd., Okayama, Japan, or L-ascorbic acid, a special reagent grade specimen commercialized by Wako Pure Chemical Industries, Ltd., Tokyo, Japan, […]
Continuously-cultivated A431 cells in D-MEM medium were collected, resuspended in D-MEM medium, inoculated to culture plates with 10 cm in diameter (φ) in an amount of 1×10^6 cells/10 mL/plate, and cultured for 24 hours. Thereafter, the culture supernatants were removed by sucking, and the remaining cells were added with any of the test solutions in an amount of 10 mL/plate and cultured for another 24 hours. As a control, cells were added with only D-MEM medium in an amount of 10 mL/plate and cultured for 24 hours. To each plate, which had been removed its culture supernatant, was added ice-chilled Dulbecco's PBS (−) commercialized by Nissui Pharmaceutical Co., Ltd., Tokyo, Japan, to wash cells, which were then collected with a scraper. Glutathione was quantified with “Glutathione Assay Kit”, a commercially available glutathione assay kit commercialized by BioVision, Inc., San Francisco, USA. In this experiment, the control and test solutions were respectively assayed by using three plates respectively, and the data were averaged for obtaining a glutathione production level for each plate. A5% v/v CO2 incubator was used for culturing A431 cells in any case. Relative values of test samples were determined with the proviso that the production levels of reduced glutathione and total glutathione levels in A431 cells that had been cultured with only D-MEM medium were respectively regarded as 100%, and the results are in Table 4.

[6] = tested on: glutathione; assay: Production level of glutathione in NHEK cells; assay type: cell-based, human; conditions: 0.1 mM, 24 h, control = 100%
Protocol: Continuously-cultivated NHEK cells in EpiLife medium were collected, resuspended in EpiLife medium, inoculated to culture plates with 10 cm in diameter in an amount of 1×10^6 cells/10 mL/plate, and cultured for 24 hours. Thereafter, each culture supernatant was removed by sucking, and any of the test solutions was added to the remaining cells in a volume of 10 mL/plate, followed by culturing the cells for another 24 hours. As a control, cells were added with only D-MEM medium in an amount of 10 mL/plate and cultured for 24 hours. Each culture supernatant was removed from each plate, then ice-chilled Dulbecco's PBS (−), commercialized by Nissui Pharmaceutical Co., Ltd., Tokyo, Japan, was added to rinse the remaining cells, which were then collected with a scraper. Glutathione was quantified on “Glutathione Assay Kit”, a product name of glutathione assay kit commercialzied by BioVision, Inc., San Francisco, USA. In this experiment, the control and test solutions in respective three plates were assayed for glutathione production level for each plate and averaged for obtaining the glutathione production level of each solution. A 5% v/v CO2 incubator was used for culturing NHEK cells in any case. Relative values of test samples were determined with the proviso that the production levels of reduced glutathione and total glutathione in NHEK cells that had been cultured with only EpiLife medium were respectively regarded as 100%, and the results are in Table 5.

[7] = tested on: A431 cells; assay: Cytotoxicity in A431 cell culture; assay type: cell-based, human; conditions: D-MEM medium, 24 h
[8] = tested on: B16 cells; assay: Cytotoxicity in B16 cell culture; assay type: cell-based, mouse; conditions: D-MEM medium, 2.0 mM, 2 h

Compound	Occludin concentration in cell extract [1] [%]	OD310nm Value (CE Production level) [2]	ZO-1 Concentration in cell extract [3] [%]	cytotoxicity ([4]; 0.5 mM)	upper limit concentration that does not induce cytotoxicity [4] [mM]	Reduced glutathione [5] [%]	Total glutathione [5] [%]	Reduced glutathione [6] [%]	Total glutathione [6] [%]	cytotoxicity ([7]; 1.0 mM)	upper limit concentration that does not induce cytotoxicity [7] [mM]	cytotoxicity [8]
[Ca+2].[Cl-].[Cl-] [CaCl2, reference compound]	100	1.07 ± 0.07	100									
O=C1O[C@H]([C@@H](O)CO)C(O)=C1O [L-ascorbic acid]				cytotoxicity induced	0.1	103	102	102	103	cytotoxicity was induced	0.1	induced cytotoxicity
